Assay results: the NIST ThermoML archive (doi:10.1016/j.jct.2008.01.017)

Experiments:
[1] = refractive index (Na D-line) (dimensionless); settings: 293.15 K; 101.33 kPa; Liquid; Standard Abbe refractometry
[2] = 293.15 K, 101.33 kPa, Liquid
[3] = excess molar enthalpy (molar enthalpy of mixing); xn = mol fraction of the nth substance listed; settings: 101 kPa, Liquid, Flow calorimetry

CCCCCCCCO [octan-1-ol]
Settings	mass density [kg/m3]	refractive index
[1]	–	1.4293
[2]	825.8	–

CCCCCCCCO [octan-1-ol] + CC#N
[3]
Settings	excess molar enthalpy [kcal/mol]
298.15 K, x1 = 0.0476	0.161
298.15 K, x1 = 0.0971	0.282
298.15 K, x1 = 0.1479	0.375
298.15 K, x1 = 0.1998	0.449
298.15 K, x1 = 0.2521	0.502
298.15 K, x1 = 0.3044	0.541
298.15 K, x1 = 0.3562	0.566
298.15 K, x1 = 0.407	0.58
298.15 K, x1 = 0.471	0.583
298.15 K, x1 = 0.5316	0.565
298.15 K, x1 = 0.5882	0.539
298.15 K, x1 = 0.6879	0.459
298.15 K, x1 = 0.7685	0.369
298.15 K, x1 = 0.802	0.328
298.15 K, x1 = 0.8567	0.245
298.15 K, x1 = 0.8975	0.176
298.15 K, x1 = 0.9375	0.117
313.15 K, x1 = 0.063	0.205
313.15 K, x1 = 0.1288	0.361
313.15 K, x1 = 0.1966	0.487
313.15 K, x1 = 0.2652	0.568
313.15 K, x1 = 0.3335	0.614
313.15 K, x1 = 0.4003	0.635
313.15 K, x1 = 0.4647	0.635
313.15 K, x1 = 0.5259	0.62
313.15 K, x1 = 0.583	0.592
313.15 K, x1 = 0.6357	0.551
313.15 K, x1 = 0.6837	0.501
313.15 K, x1 = 0.7268	0.452
313.15 K, x1 = 0.7653	0.404
313.15 K, x1 = 0.7992	0.359
313.15 K, x1 = 0.8288	0.315
313.15 K, x1 = 0.8762	0.236
313.15 K, x1 = 0.9349	0.124
323.15 K, x1 = 0.0633	0.218
323.15 K, x1 = 0.1295	0.397
323.15 K, x1 = 0.1975	0.541
323.15 K, x1 = 0.2663	0.613
323.15 K, x1 = 0.3347	0.655
323.15 K, x1 = 0.4017	0.672
323.15 K, x1 = 0.4661	0.669
323.15 K, x1 = 0.5273	0.651
323.15 K, x1 = 0.5844	0.619
323.15 K, x1 = 0.637	0.575
323.15 K, x1 = 0.6849	0.529
323.15 K, x1 = 0.7279	0.478
323.15 K, x1 = 0.7663	0.428
323.15 K, x1 = 0.8001	0.383
323.15 K, x1 = 0.8296	0.335
323.15 K, x1 = 0.8768	0.248
323.15 K, x1 = 0.9352	0.131

CCCCCCCO [heptan-1-ol]
Settings	mass density [kg/m3]	refractive index
[1]	–	1.4245
[2]	822.3	–

CC#N [acetonitrile]
Settings	refractive index
[1]	1.3441

Settings	mass density [kg/m3]
[2], Vibrating tube method	784.6

CCCCCCCO [heptan-1-ol] + CC#N
[3]
Settings	excess molar enthalpy [kcal/mol]
298.15 K, x1 = 0.0529	0.141
298.15 K, x1 = 0.1128	0.261
298.15 K, x1 = 0.1738	0.365
298.15 K, x1 = 0.2352	0.435
298.15 K, x1 = 0.2962	0.485
298.15 K, x1 = 0.3561	0.516
298.15 K, x1 = 0.4143	0.53
298.15 K, x1 = 0.4701	0.532
298.15 K, x1 = 0.5231	0.523
298.15 K, x1 = 0.573	0.505
298.15 K, x1 = 0.6194	0.479
298.15 K, x1 = 0.6623	0.449
298.15 K, x1 = 0.7015	0.416
298.15 K, x1 = 0.7692	0.349
298.15 K, x1 = 0.8038	0.303
298.15 K, x1 = 0.8621	0.221
298.15 K, x1 = 0.9271	0.116
313.15 K, x1 = 0.0698	0.186
313.15 K, x1 = 0.1417	0.326
313.15 K, x1 = 0.2146	0.43
313.15 K, x1 = 0.2872	0.504
313.15 K, x1 = 0.3584	0.545
313.15 K, x1 = 0.427	0.56
313.15 K, x1 = 0.4923	0.561
313.15 K, x1 = 0.5533	0.548
313.15 K, x1 = 0.6096	0.52
313.15 K, x1 = 0.6608	0.481
313.15 K, x1 = 0.707	0.438
313.15 K, x1 = 0.7482	0.392
313.15 K, x1 = 0.7845	0.348
313.15 K, x1 = 0.8163	0.304
313.15 K, x1 = 0.8439	0.26
313.15 K, x1 = 0.8642	0.228
313.15 K, x1 = 0.9283	0.121
323.15 K, x1 = 0.0704	0.19
323.15 K, x1 = 0.1429	0.348
323.15 K, x1 = 0.2161	0.469
323.15 K, x1 = 0.2891	0.541
323.15 K, x1 = 0.3605	0.574
323.15 K, x1 = 0.4293	0.585
323.15 K, x1 = 0.4946	0.58
323.15 K, x1 = 0.5555	0.565
323.15 K, x1 = 0.6117	0.54
323.15 K, x1 = 0.6629	0.498
323.15 K, x1 = 0.7089	0.452
323.15 K, x1 = 0.7499	0.404
323.15 K, x1 = 0.786	0.359
323.15 K, x1 = 0.8177	0.315
323.15 K, x1 = 0.8451	0.273
323.15 K, x1 = 0.8642	0.242
323.15 K, x1 = 0.9283	0.133
